Results reported in US20060167026A1, “Antipsychotic molecular-targeting epithelial growth factor receptor” (Hiroyuki Nawa, priority 2003, published 2006).

Tests used:
[1] = tested on: rat model for cognitive dysfunction (EGF administered to neonatal rats); test: latent inhibition in two-way active avoidance, neonatally EGF-treated rat model; assay type: in vivo
Procedure: The rat model for cognitive/behavioral dysfunction was prepared as EGF was administered to neonatal rats as described in the method of Experiment 1. SD rats were subjected to the two-way active avoidance task in an automated shuttle box (Muromachi-kiki, Tokyo, Japan) on postnatal weeks 6-8. The conditioned stimulus (CS) was an 80-dB tone and house light on and off. Rats learned the following task: When the CS was on, the animals had to cross to the other side of the shuttle box apparatus (avoidance response) in order to turn the CS off and avoid the appearance of the unconditioned stimulus (US). […] Rats were given 6 sessions of two-way active-avoidance conditioning (10 trials per session)(total 60 trials). Active-avoidance learning was evaluated by scoring the number of avoidance rate to CS.
Before this learning test was conducted, the CS of an 80-dB tone and house light had been given to normal rats without delivering US (pre-conditioning), following avoidance learning was impaired in these rats (FIG. 5 top; open circle). This is latent inhibition that represents the effect of the pre-exposure of a conditioned stimulus (CS, e.g. tone), preventing the learning of unconditioned stimulus (Russig H et al. Neuropsychopharmacology 26: p 765-777 (2002)).
When the rat model for cognitive/behavioral dysfunction, which is described in the Experiment 1, was exposed to the pre-conditioning. […] Such persistency can be inducible with hallucinogens such as cocaine (Murphy, C. A. et al. Behav Pharmacol. 12:p 13-23 (2001)).

[2] = tested on: rats to which EGF was administered as neonates (model for cognitive dysfunction); test: prepulse inhibition of acoustic startle in rats to which EGF was administered as neonates; assay type: in vivo, rat
Procedure: Newborn Sprague-Dawley (SD) rats were purchased from SLC (Shizuoka, Japan). Recombinant human EGF (Higeta-Syoyu Co, Chiba Japan) and cytochrome c (Sigma Chemical Co; control) were dissolved in physiologic saline. These agents were administered subcutaneously to rat pups on postnatal days 2, 4, 6, 8, and 10 at the nape of the neck at a dose of 1.75 μg of 1 g body weight).
Acoustic startle amplitudes and PPI responses were measured in a startle reaction chamber for small animals (SR-Lab Systems, San Diego Instruments, San Diego, Calif.) from postnatal week 3. Acoustic startle was induced with acoustic stimuli (120 dB), in combination with three different prepulse intensities of 5-, 10-, and 15-dB-above background noise (75, 80, 85 dB). The 120 dB pulse was followed 100 ms after one of the prepulses was given. Each rat was placed in the startle chamber and initially acclimatized for 5 min with background noise alone. Prepulse inhibition (PPI) of a startle response was calculated as: 100−[(startle response on prepulse pulse stimulus trials−no stimulus trials)/(pulse alone trials−no stimulus trials)×100].
SD rats treated with EGF or cytochrome c (control) were tested on postnatal days 56-66. […] The same concentration of DMSO solution was used as a control.
After anesthesia, a 28 gauge cannula was inserted into the site of rat skull (0.3 mm anterior and 1.2 mm right lateral measured from the bregma, 4.5 mm below the skull) and glued to the skull with dental cement. The end of cannula was connected to an osmotic minipump (250 μl, effective for 14 days model 2002; Azla Corp.) via vinyl tubing. Pumps were implanted subcutaneously in the nape of the neck. […] The scalp incision was closed with surgical suture and staples, and rats were maintained to wait recovery from the operation.
Seven days after administration, prepulse inhibition of the rats was monitored with 85 dB prepulse intensity using the acoustic startle measurement chamber for small animals (SR-Lab Systems, San Diego Instruments, San Diego, Calif.).

## COc1cc2ncnc(Nc3ccc(F)c(Cl)c3)c2cc1OCCCN1CCOCC1 [Compound B, 4-(3-chloro4-fluoroanilino)-7-methoxy-6-(3-morphorinopropoxy) quianozoline]
[1]; EGF model rats, pre-conditioned, two-way active avoidance
  learning ability of treated model rats relative to normal controls: indistinguishable from that of normal controls
[1]; EGF model rats, pre-conditioned, two-way active avoidance, intraventricular minipump
  effect on abnormal increase in latent inhibition: significantly exert an ameliorative effect on abnormal increase in latent inhibition
[1]; both normal control rats and model rats, after administration
  learning ability in conditioned avoidance learning: exhibited better learning ability
[2]; EGF model rats, intraventricular minipump 1 mg/ml, day 7, 85 dB prepulse
  difference in prepulse inhibition between treated model rats and control animals: no significant differences
[2]; EGF model rats, intraventricular osmotic minipump 1 mg/ml, seven days after administration, 85 dB prepulse, compared to solvent-injected group
  effect on abnormal decrease in prepulse inhibition: significantly ameliorated the abnormal decrease in prepulse inhibition
[2]; normal control rats, intraventricular minipump 1 mg/ml, day 7, 85 dB prepulse
  effect on prepulse inhibition in normal control rats: had no effects in prepulse inhibition
